# Laboratory results taken from a compilation of properties of binary mixtures (doi:10.1021/jp3012602).
# Experiment: xn = mol fraction of the nth substance listed
# Details: 101 kPa
Compound,"electrical conductivity (293.15 K, x2 = 0) [S/m]","electrical conductivity (293.15 K, x2 = 0.75) [S/m]","viscosity (293.15 K, x2 = 0.75) [mPa·s]","electrical conductivity (313.15 K, x2 = 0) [S/m]","viscosity (313.15 K, x2 = 0) [mPa·s]","electrical conductivity (313.15 K, x2 = 0.5) [S/m]","viscosity (313.15 K, x2 = 0.5) [mPa·s]","electrical conductivity (333.15 K, x2 = 0) [S/m]","viscosity (333.15 K, x2 = 0) [mPa·s]","electrical conductivity (333.15 K, x2 = 0.5) [S/m]","viscosity (333.15 K, x2 = 0.5) [mPa·s]","electrical conductivity (353.15 K, x2 = 0.75) [S/m]","viscosity (353.15 K, x2 = 0.75) [mPa·s]","electrical conductivity (293.15 K, x1 = 1) [S/m]","electrical conductivity (313.15 K, x1 = 1) [S/m]","viscosity (313.15 K, x1 = 1) [mPa·s]","electrical conductivity (333.15 K, x1 = 1) [S/m]","viscosity (333.15 K, x1 = 1) [mPa·s]","electrical conductivity (353.15 K, x1 = 1) [S/m]","viscosity (353.15 K, x1 = 1) [mPa·s]",other results
CCC[N+]1(C)CCCC1.O=S(=O)([N-]S(=O)(=O)C(F)(F)F)C(F)(F)F + CCCCCCCCCCCCCC[P+](CCCCCC)(CCCCCC)CCCCCC.O=S(=O)([N-]S(=O)(=O)C(F)(F)F)C(F)(F)F,0.32,0.0113,368,0.678,34.5,0.0565,117,1.18,18.8,0.12,51.8,0.146,29.2,–,–,–,–,–,–,–,"electrical conductivity (293.15 K, x2 = 0.5): 0.0216 S/m; viscosity (293.15 K, x2 = 0.5): 322 mPa·s; electrical conductivity (333.15 K, x2 = 0.75): 0.0688 S/m; viscosity (333.15 K, x2 = 0.75): 61.9 mPa·s; electrical conductivity (353.15 K, x2 = 0): 1.76 S/m; viscosity (353.15 K, x2 = 0): 11.6 mPa·s; electrical conductivity (353.15 K, x2 = 0.5): 0.223 S/m; viscosity (353.15 K, x2 = 0.5): 26.7 mPa·s"
CCC[N+]1(C)CCCC1.O=S(=O)([N-]S(=O)(=O)C(F)(F)F)C(F)(F)F + CCCCCC[N+]1(C)CCCC1.O=S(=O)([N-]S(=O)(=O)C(F)(F)F)C(F)(F)F,0.32,–,–,0.678,34.4,–,–,1.18,18.8,–,–,–,–,–,–,–,–,–,–,–,–
CCC[N+]1(C)CCCC1.O=S(=O)([N-]S(=O)(=O)C(F)(F)F)C(F)(F)F + CCCC[N+]1(C)CCCC1.O=S(=O)([N-]S(=O)(=O)C(F)(F)F)C(F)(F)F,0.32,0.261,92,0.678,34.4,0.61,37.9,–,–,1.03,20,1.57,12.5,–,–,–,–,–,–,–,"electrical conductivity (293.15 K, x2 = 0.5): 0.298 S/m; viscosity (293.15 K, x2 = 0.5): 87 mPa·s; electrical conductivity (313.15 K, x2 = 0.25): 0.509 S/m; viscosity (313.15 K, x2 = 0.25): 35.9 mPa·s; electrical conductivity (313.15 K, x2 = 0.75): 0.569 S/m; viscosity (313.15 K, x2 = 0.75): 39.5 mPa·s; electrical conductivity (333.15 K, x2 = 0.25): 0.893 S/m; viscosity (333.15 K, x2 = 0.25): 19.2 mPa·s; electrical conductivity (353.15 K, x2 = 0): 1.76 S/m; viscosity (353.15 K, x2 = 0): 11.6 mPa·s; electrical conductivity (353.15 K, x2 = 0.25): 1.39 S/m; viscosity (353.15 K, x2 = 0.25): 11.8 mPa·s"
CCC[N+]1(C)CCCC1.O=S(=O)([N-]S(=O)(=O)C(F)(F)F)C(F)(F)F + CCC[N+]1(C)CCCC1.N#C[N-]C#N,0.32,–,–,–,–,–,–,1.18,18.8,–,–,–,–,–,–,–,–,–,–,–,–
CCCCCCCCCCCCCC[P+](CCCCCC)(CCCCCC)CCCCCC.O=S(=O)([N-]S(=O)(=O)C(F)(F)F)C(F)(F)F + CCC[N+]1(C)CCCC1.O=S(=O)([N-]S(=O)(=O)C(F)(F)F)C(F)(F)F,–,–,–,–,–,–,–,–,–,–,–,–,–,0.0072,0.0216,150,0.0473,63,0.0913,31.1,–
CCCCCC[N+]1(C)CCCC1.O=S(=O)([N-]S(=O)(=O)C(F)(F)F)C(F)(F)F + CCC[N+]1(C)CCCC1.O=S(=O)([N-]S(=O)(=O)C(F)(F)F)C(F)(F)F,–,–,–,–,–,–,–,–,–,–,–,–,–,0.118,0.272,52.7,0.525,25.9,0.86,14.9,"electrical conductivity (293.15 K, x1 = 0.25): 0.268 S/m; viscosity (293.15 K, x1 = 0.25): 89 mPa·s; electrical conductivity (293.15 K, x1 = 0.5): 0.185 S/m; viscosity (293.15 K, x1 = 0.5): 102 mPa·s; electrical conductivity (293.15 K, x1 = 0.75): 0.111 S/m; viscosity (293.15 K, x1 = 0.75): 116 mPa·s; electrical conductivity (313.15 K, x1 = 0.5): 0.417 S/m; viscosity (313.15 K, x1 = 0.5): 42.9 mPa·s; electrical conductivity (313.15 K, x1 = 0.75): 0.251 S/m; viscosity (313.15 K, x1 = 0.75): 47.3 mPa·s; electrical conductivity (333.15 K, x1 = 0.25): 1.02 S/m; viscosity (333.15 K, x1 = 0.25): 20.6 mPa·s; electrical conductivity (333.15 K, x1 = 0.5): 0.766 S/m; viscosity (333.15 K, x1 = 0.5): 22.2 mPa·s; electrical conductivity (333.15 K, x1 = 0.75): 0.463 S/m; viscosity (333.15 K, x1 = 0.75): 23.8 mPa·s; electrical conductivity (353.15 K, x1 = 0.25): 1.54 S/m; viscosity (353.15 K, x1 = 0.25): 12.6 mPa·s; electrical conductivity (353.15 K, x1 = 0.75): 0.724 S/m; viscosity (353.15 K, x1 = 0.75): 13.9 mPa·s"
CCCC[N+]1(C)CCCC1.O=S(=O)([N-]S(=O)(=O)C(F)(F)F)C(F)(F)F + CCC[N+]1(C)CCCC1.O=S(=O)([N-]S(=O)(=O)C(F)(F)F)C(F)(F)F,–,–,–,–,–,–,–,–,–,–,–,–,–,0.222,0.471,42,0.827,21.7,1.23,12.9,–
CCC[N+]1(C)CCCC1.N#C[N-]C#N + CCC[N+]1(C)CCCC1.O=S(=O)([N-]S(=O)(=O)C(F)(F)F)C(F)(F)F,–,–,–,–,–,–,–,–,–,–,–,–,–,1.57,2.67,18.6,4.44,11.7,–,7.95,"electrical conductivity (293.15 K, x1 = 0.25): 0.44 S/m; viscosity (293.15 K, x1 = 0.25): 63.1 mPa·s; electrical conductivity (293.15 K, x1 = 0.5): 0.733 S/m; viscosity (293.15 K, x1 = 0.5): 51 mPa·s; electrical conductivity (293.15 K, x1 = 0.75): 0.982 S/m; viscosity (293.15 K, x1 = 0.75): 44.9 mPa·s; electrical conductivity (313.15 K, x1 = 0.25): 0.842 S/m; viscosity (313.15 K, x1 = 0.25): 29.7 mPa·s; electrical conductivity (313.15 K, x1 = 0.5): 1.34 S/m; viscosity (313.15 K, x1 = 0.5): 25.3 mPa·s; electrical conductivity (313.15 K, x1 = 0.75): 1.75 S/m; viscosity (313.15 K, x1 = 0.75): 21.6 mPa·s; electrical conductivity (333.15 K, x1 = 0.5): 2.16 S/m; viscosity (333.15 K, x1 = 0.5): 14.8 mPa·s; viscosity (353.15 K, x1 = 0.25): 10.4 mPa·s; viscosity (353.15 K, x1 = 0.5): 9.58 mPa·s; viscosity (353.15 K, x1 = 0.75): 8.66 mPa·s"
CC[n+]1ccn(C)c1.O=S(=O)([N-]S(=O)(=O)C(F)(F)F)C(F)(F)F + CCC[N+]1(C)CCCC1.O=S(=O)([N-]S(=O)(=O)C(F)(F)F)C(F)(F)F,–,–,–,–,–,–,–,–,–,–,–,–,–,0.752,1.35,19.9,2.1,12,3.05,7.97,–
CCC[N+]1(C)CCCC1.O=S(=O)([N-]S(=O)(=O)C(F)(F)F)C(F)(F)F + CC[n+]1ccn(C)c1.O=S(=O)([N-]S(=O)(=O)C(F)(F)F)C(F)(F)F,0.32,0.633,45,0.678,34.4,0.985,25.8,–,–,1.62,14.9,2.66,8.77,–,–,–,–,–,–,–,"electrical conductivity (293.15 K, x2 = 0.25): 0.408 S/m; viscosity (293.15 K, x2 = 0.25): 63.6 mPa·s; electrical conductivity (313.15 K, x2 = 0.25): 0.801 S/m; viscosity (313.15 K, x2 = 0.25): 29.4 mPa·s; electrical conductivity (313.15 K, x2 = 0.75): 1.16 S/m; viscosity (313.15 K, x2 = 0.75): 22.6 mPa·s; electrical conductivity (333.15 K, x2 = 0.25): 1.34 S/m; viscosity (333.15 K, x2 = 0.25): 16.6 mPa·s; electrical conductivity (333.15 K, x2 = 0.75): 1.85 S/m; viscosity (333.15 K, x2 = 0.75): 13.3 mPa·s; electrical conductivity (353.15 K, x2 = 0.25): 2 S/m; viscosity (353.15 K, x2 = 0.25): 10.5 mPa·s; electrical conductivity (353.15 K, x2 = 0.5): 2.37 S/m; viscosity (353.15 K, x2 = 0.5): 9.57 mPa·s"
